# Patent US10030016B2 (Sunesis Pharmaceuticals, Inc., priority 2009, dated 2018)
# Where a name gives a salt, the structure may show the parent alone. Read-outs that look alike come from different tables or passages of the source.
# What was measured:
# [1] = target: PDK1 (Homo sapiens (Human), UniProt O15530); experiment: PDK1 kinase assay (coupled PDK1/AKT/FAM-crosstide assay, IMAP fluorescence polarization); assay type: biochemical
# Method in brief: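 GST-tagged human PDK1 (aa 51-359, 0.75 nM) from insect cells activated unphosphorylated GST-AKT2 (aa 140-467–PIFtide fusion, 10 nM), which phosphorylated 100 nM FAM-crosstide; 40 μM ATP, pH 7.2 Tris/MgCl2, 30 min at 25° C. IMAP fluorescence polarization read-out; ΔmP versus compound concentration fitted with a 4-parameter curve.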
# [2] = test system: phospho-akt (Thr308) in PC-3 cells; experiment: Inhibition of phospho-akt (Thr308) in PC-3 cells, MSD phospho-akt 308 ELISA kit; assay type: cell-based
# Method in brief: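 Phospho-Akt (Thr308) levels were measured by MSD ELISA after PC-3 cells received compound for 2 hours in serum-free medium. Controls: DMSO (high), 5 μM wortmannin (low).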
# [3] = Homo sapiens, inhibition of P308 Akt in PC-3 cells using MSD, 2 hours, no serum, read-out: EC50
# [4] = inhibition of P308 Akt in PC-3 cells using MSD, 2 hours, no serum, read-out: EC50
# [5] = inhibition of phospo-PDK1 in vitro
# [6] = Homo sapiens, inhibition of P308 Akt in PC-3 cells, 2 hours, no serum, MSD, read-out: EC50
# [7] = Homo sapiens, PC-3, 2 h, inhibition of P308 Akt in PC-3 cells, 2 hours, no serum, MSD, read-out: EC50
# Chain of PDK1 (O15530 51-359): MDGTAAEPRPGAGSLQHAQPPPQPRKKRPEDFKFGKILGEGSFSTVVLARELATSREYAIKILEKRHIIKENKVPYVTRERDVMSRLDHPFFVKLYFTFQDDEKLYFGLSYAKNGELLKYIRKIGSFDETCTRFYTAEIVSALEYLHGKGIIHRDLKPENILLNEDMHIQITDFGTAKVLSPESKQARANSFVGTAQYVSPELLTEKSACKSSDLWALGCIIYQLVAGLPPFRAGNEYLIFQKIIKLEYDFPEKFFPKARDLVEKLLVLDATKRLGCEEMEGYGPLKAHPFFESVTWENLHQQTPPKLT
SMILES,IC50 ([1]; inhibition of PDK1 in vitro) [nM],"EC50 [2, 3] [nM]","IC50 [1, 5] [nM]",further results
"C[C@H](NC(=O)c1cc(C#N)cnc1NCc1ccc(-c2cnc3[nH]c(=O)[nH]c3c2)cc1)c1ccc(F)cc1 [Example 116, (S)-5-cyano-N-(1-(4-fluorophenyl)ethyl)-2-(4-(2-oxo-2,3-dihydro-1H-imidazo[4,5-b]pyridin-6-yl)benzyl-amino)nicotinamide]",< 100,< 1000,–,–
"C[C@H](NC(=O)c1nccnc1NCc1ccc(-c2ccc(N)nc2)cc1)c1ccc(F)cc1 [Example 371, (S)-3-(4-(6-aminopyridin-3-yl)benzylamino)-N-(1-(4-fluorophenyl)ethyl)pyrazine-2-carboxamide]",< 100,> 10000,–,–
"C[C@H](NC(=O)c1nc(C#N)cnc1NCc1ccc(-c2cnc(N)c(CCC3CCNC3)n2)cc1)c1ccc(F)c(F)c1 (single isomer, unassigned) [Example 80]",< 100,–,–,"EC50 [2, 4]: 1000 to 10000 nM"
"C[C@H](NC(=O)c1cc(C#N)cnc1NCc1ccc(-c2nc3c(N)ncnc3[nH]2)cc1)c1ccc(F)cc1 [Example 113, (S)-2-(4-(6-amino-9H-purin-8-yl)benzylamino)-5-cyano-N-(1-(4-fluorophenyl)ethyl) nicotinamide]",< 100,–,–,"EC50 [2, 4]: > 10000 nM"
"O=C(NCc1ccc(F)c(F)c1)c1cccnc1NCc1csc(-c2ccc3ncnc(NC4CC4)c3c2)n1 [Ex. 6.9, 2-[({2-[4-(cyclopropyl-amino)quinazolin-6-yl)-1,3-thiazol-4-yl}methyl)amino]-N-(3,4-difluorobenzyl) pyridine-3-carboxamide]",–,–,< 100,"EC50 [2, 6]: > 10000 nM"
"COc1cccc(NC(=O)c2cc(C(F)(F)F)cnc2NCc2ccc(-c3cnc4[nH]nc(N)c4c3)cc2)c1 [Example 301, 2-(4-(3-amino-1H-pyrazolo [3,4-b]pyridin-5-yl)benzylamino)-N-(3-methoxyphenyl)-5-(trifluoromethyl)nicotinamide]",< 100,1000 to 10000,–,–
"C[C@H](NC(=O)c1nc(C#N)cnc1NCc1ccc(-c2cnc3[nH]nc(N)c3n2)cc1)c1ccc(F)c(F)c1 [Example 182, 3-[4-(3-Amino-1H-pyrazolo[3,4-b]pyrazin-5-yl)-benzylamino]-6-cyano-pyrazine-2-carboxylic acid [(S)-1-(3,4-difluoro-phenyl)-ethyl]-amide]",< 100,–,–,"EC50 ([2]; Homo sapiens, PC-3, 2 h): < 1000 nM"
"C[C@H](NC(=O)c1cccnc1NCc1ccc(-c2ccc3ncnc(N)c3c2)s1)c1cccnc1 [Example 3.60, (S)-2-(((5-(4-aminoquinazolin-6-yl)thiophen-2-yl)methyl)amino)-N-(1-(pyridin-3-yl)ethyl) nicotinamide (TFA salt)]",–,–,100 to 1000,"EC50 [2, 6]: 1000 to 10000 nM"
N#Cc1cnc(NCc2ccc(-c3c[nH]c4ncnc(N)c34)cc2)c(-c2nccs2)c1 [Example 352],< 100,> 10000,–,–
"CNS(=O)(=O)c1cnc(NCc2ccc(-c3ccc4ncnc(N)c4c3)s2)c(C(=O)N[C@@H](C)c2ccc(F)cc2)c1 [Example 8.7.7, 2-({[5-(4-aminoquinazolin-6-yl)thiophen-2-yl]methyl}amino)-N-[(1S)-1-(4-fluorophenyl)ethyl]-5-(methylsulfamoyl) pyridine-3-carboxamide]",–,–,100 to 1000,"EC50 [2, 6]: 1000 to 10000 nM"
"Nc1n[nH]c2ncc(-c3ccc(CNc4ncc(C(F)(F)F)cc4C(=O)Nc4ccc(Cl)cc4)cc3)cc12 [Example 304, 2-(4-(3-amino-1H-pyrazolo [3,4-b]pyridin-5-yl)benzylamino)-N-(4-chlorophenyl)-5-(trifluoromethyl)nicotinamide]",< 100,< 1000,–,–

# Continued, in another order:
IC50 ([1]; inhibition of PDK1 in vitro) [nM],"EC50 [2, 3] [nM]","IC50 [1, 5] [nM]",SMILES,further results
< 100,< 1000,–,"Nc1ncnc2c1c(-c1ccc(CNc3ncc(C(F)(F)F)cc3C(=O)Nc3ccc(F)cc3)cc1)cn2CCCO [Example 322, 2-(4-(4-amino-7-(3-hydroxypropyl)-7H-pyrrolo [2,3-d]pyrimidin-5-yl)benzylamino)-N-(4-fluorophenyl)-5-(trifluoromethyl)nicotinamide]",–
< 100,1000 to 10000,–,"C[C@H](NC(=O)c1nc(C#N)cnc1NCc1ccc(-c2cn(CCCN(C)C)c3ncnc(N)c23)cc1)c1ccc(F)c(F)c1 [Example 316, (S)-3-(4-(4-amino-7-(3-(dimethylamino)propyl)-7H-pyrrolo[2,3-d]pyrimidin-5-yl)benzylamino)-6-cyano-N-(1-(3,4-difluoro-phenyl)ethyl)pyrazine-2-carboxamide]",–
< 100,< 1000,–,"Nc1ncnc2c1c(-c1ccc(CNc3ncc(C(F)(F)F)cc3C(=O)NCc3ccc(F)c(F)c3)cc1)cn2CCCO [Example 334, 2-(4-(4-amino-7-(3-hydroxypropyl)-7H-pyrrolo[2,3-d]pyrimidin-5-yl)-benzylamino)-N-(3,4-difluorobenzyl)-5-(trifluoromethyl)nicotinamide]",–
< 100,1000 to 10000,–,"C[C@H](NC(=O)c1cc(C#N)cnc1NCc1ccc(-c2cnc3[nH]nc(CN)c3c2)cc1)c1ccc(F)cc1 [Example 152, (S)-2-(4-(3-(aminomethyl)-1H-pyrazolo[3,4-b]pyridin-5-yl)benzyl-amino)-5-cyano-N-(1-(4-fluorophenyl)ethyl)nicotinamide]",–
–,–,< 100,"C=C(C)c1cnc(NCc2ccc(-c3ccc4ncnc(N)c4c3)s2)c(C(=O)NCc2ccc(F)c(F)c2)n1 [Ex. 10.5, 3-({[5-(4-aminoquinazolin-6-yl)thiophen-2-yl]methyl}amino)-N-(3,4-difluorobenzyl)-6-(prop-1-en-2-yl)pyrazine-2-carboxamide]","EC50 [2, 6]: 1000 to 10000 nM"
–,–,100 to 1000,"Nc1ncnc2ccc(-c3ccc(CNc4ncccc4C(=O)NCc4ccc(Cl)c(Cl)c4)s3)cc12 [Example 3.29, 2-({[5-(4-aminoquinazolin-6-yl)thiophen-2-yl]methyl}amino)-N-(3,4-dichlorobenzyl) pyridine-3-carboxamide (TFA salt)]","EC50 [2, 6]: 1000 to 10000 nM"
< 100,1000 to 10000,–,"C[C@@H](Nc1ncc(C(F)(F)F)cc1C(=O)Nc1ccc(F)cc1)c1ccc(-c2cn(C)c3ncnc(N)c23)cc1 [Example 403, (R)-2-(1-(4-(4-amino-7-methyl-7H-pyrrolo[2,3-d]pyrimidin-5-yl)phenyl)ethylamino)-N-(4-fluoro-phenyl)-5-(trifluoromethyl) nicotinamide]",–
< 100,1000 to 10000,–,"Cc1cc(CNc2ncc(C#N)cc2C(=O)N[C@@H](C)c2ccc(F)cc2)ccc1-c1cnc2[nH]nc(N)c2c1 [Example 408, 2-[4-(3-Amino-1H-pyrazolo [3,4-b]pyridin-5-yl)-3-methyl-benzylamino]-5-cyano-N-[(S)-1-(4-fluoro-phenyl)-ethyl]-nicotinamide]",–
–,–,100 to 1000,"C[C@H](NC(=O)c1cccnc1NCc1ccc(-c2ccc3ncnc(N)c3c2)s1)c1ccc(F)cc1 [Example 3.15, 2-({[5-(4-aminoquinazolin-6-yl)thiophen-2-yl]methyl}amino)-N-[(1S)-1-(4-fluorophenyl)ethyl] pyridine-3-carboxamide]","EC50 [2, 6]: < 1000 nM"
–,–,1000 to 5000,"Nc1ncnc2ccc(-c3ccc(CNc4ncccc4C(=O)NCc4ccc(C(F)(F)F)o4)s3)cc12 [Example 3.28, 2-({[5-(4-aminoquinazolin-6-yl)thiophen-2-yl]methyl}amino)-N-{[5-(trifluoromethyl)furan-2-yl]methyl}pyridine-3-carboxamide (bis TFA salt)]","EC50 [2, 7]: > 10000 nM"
< 100,> 10000,–,"C[C@H](NC(=O)c1cc(C#N)cnc1NCc1ccc(-c2cnc(N)nc2)cc1)c1ccc(F)cc1 [Example 119, (S)-2-(4-(2-amino-pyrimidin-5-yl)benzylamino)-5-cyano-N-(1-(4-fluorophenyl)ethyl) nicotinamide]",–
–,–,< 100,"Cn1cnc2cnc3ccc(-c4ccc(CNc5ncc(C(F)(F)F)cc5C(=O)NCc5ccc(F)c(F)c5)s4)cc3c21 [Example 2.26, N-(3,4-difluorobenzyl)-2-(((5-(1-methyl-1H-imidazo[4,5-c]quinolin-8-yl)thiophen-2-yl)methyl)amino)-5-(trifluoromethyl)nicotinamide]","EC50 [2, 6]: < 1000 nM"
–,–,< 100,"O=C(NCc1ccc(F)c(F)c1)c1cccnc1NCc1ccc(-c2cnc3[nH]ncc3c2)s1 [Example 2.32, 2-(((5-(1H-pyrazolo[3,4-b]pyridin-5-yl)thiophen-2-yl)methyl)amino)-N-(3,4-difluorobenzyl) nicotinamide]","EC50 [2, 6]: 1000 to 10000 nM"
–,–,1000 to 5000,"C[C@H](NC(=O)c1cccnc1NCc1ccc(-c2ccn3ncnc3c2)s1)c1ccc(F)cc1 [Example 2.5, N-[(1S)-1-(4-fluorophenyl)ethyl]-2-({[5-([1,2,4]triazolo[1,5-a]pyridin-7-yl)thiophen-2-yl)methyl}amino)pyridine-3-carboxamide]","EC50 [2, 7]: > 10000 nM"
> 5000,> 10000,–,"C[C@H](NC(=O)c1cc(C#N)cnc1NCc1ccc(-c2ccnc(C#N)c2)cc1)c1ccc(F)cc1 [Example 108, (S)-5-cyano-2-(4-(2-cyanopyridin-4-yl)benzylamino)-N-(1-(4-fluorophenyl)ethyl)nicotinamide]",–
1000 to 5000,> 10000,–,"CNc1ncc2cc(O[C@@H](C)CNc3ncc(C#N)cc3C(=O)N[C@@H](C)c3ccc(F)cc3)ccc2n1 [Example 253, 5-cyano-N-((S)-1-(4-fluorophenyl)ethyl)-2-((S)-2-(2-(methylamino)quinazolin-6-yloxy)propylamino)nicotinamide]",–
